# Experimental data from patent publication US20170190671A1, “BIS(ARYL)CATECHOL DERIVATIVES AS HERBICIDES” (E I DU PONT DE NEMOURS AND COMPANY, priority 2014, published 2017).
# Key:
# Assay in all cases: Test E preemergence
# Format in all cases: in vivo
# Details in all cases: scale 0 to 100
# [1] = system: morningglory (Ipomoea coccinea)
# From the text: (§1) Seeds of plant species selected from corn (Zea mays), soybean (Glycine max), velvetleaf (Abutilon theophrasti), cocklebur (common cocklebur, Xanthium strumarium), lambsquarters (Chenopodium album), wild poinsettia (Euphorbia heterophylla), palmer pigweed (Amaranthus palmeri), waterhemp (common waterhemp, Amaranthus rudis), surinam grass (Brachiaria decumbens), large (Lg) crabgrass (Digitaria sanguinalis), Brazilian crabgrass (Digitaria horizontalis), fall panicum (Panicum dichotomiflorum), giant foxtail (Setaria faberii), green foxtail (Setaria viridis), goosegrass (Eleusine indica), johnsongrass (Sorghum halepense), ragweed (common ragweed, Ambrosia elatior), barnyardgrass (Echinochloa crus-galli), sandbur (southern sandbur, Cenchrus echinatus), arrowleaf sida (Sida rhombifolia), Italian ryegrass (Lolium multiflorum), dayflower (Virginia (VA) dayflower, Commelina virginica), field bindweed (Convolvulus arvensis), morningglory (Ipomoea coccinea), nightshade (eastern black nightshade, Solanum ptycanthum), kochia (Kochia scoparia), yellow nutsedge (Cyperus esculentus), horseweed (Conyza canadensis), and hairy beggarticks (Bidens pilosa), were planted into a silt loam soil and treated preemergence with test chemicals formulated in a non-phytotoxic solvent mixture which included a surfactant.
# (§2) At the same time, plants from these crop and weed species and also waterhemp_RES1, (ALS & Triazine resistant common waterhemp, Amaranthus rudis), and waterhemp_RES2, (ALS & HPPD resistant common waterhemp, Amaranthus rudis) were planted in pots containing Redi-Earth® planting medium (Scotts Company, 14111 Scottslawn Road, Marysville, Ohio 43041) comprising spaghnum peat moss, vermiculite, wetting agent and starter nutrients were treated with postemergence applications of test chemicals formulated in the same manner. Plants ranged in height from 2 to 18 cm for postemergence treatments (1- to 4-leaf stage). Treated plants and controls were maintained in a greenhouse for 14 to 21 days, after which time all species were compared to controls and visually evaluated. Plant response ratings, summarized in Table E, are based on a scale of 0 to 100 where 0 is no effect and 100 is complete control. A dash (-) response means no test result.
# [2] = system: fall panicum (Panicum dichotomiflorum)
# From the text: as §1, §2
# corn (Zea mays) = system: corn (Zea mays)
# From the text: as §1, §2
# [3] = system: lambsquarters (Chenopodium album)
# From the text: as §1, §2
# [4] = system: dayflower (Virginia (VA) dayflower, Commelina virginica)
# From the text: as §1, §2
# [5] = system: green foxtail (Setaria viridis)
# From the text: as §1, §2
# [6] = system: Italian ryegrass (Lolium multiflorum)
# From the text: as §1, §2
# [7] = system: palmer pigweed (Amaranthus palmeri)
# From the text: as §1, §2
# [8] = system: nightshade (eastern black nightshade, Solanum ptycanthum)
# From the text: as §1, §2
# [9] = system: barnyardgrass (Echinochloa crus-galli)
# From the text: as §1, §2
# [10] = system: waterhemp (common waterhemp, Amaranthus rudis)
# From the text: as §1, §2
# [11] = system: sandbur (southern sandbur, Cenchrus echinatus)
# From the text: as §1, §2
# [12] = system: yellow nutsedge (Cyperus esculentus)
# From the text: as §1, §2
# soybean (Glycine max) = system: soybean (Glycine max)
# From the text: as §1, §2
# [13] = system: hairy beggarticks (Bidens pilosa)
# From the text: as §1, §2
# [14] = system: large (Lg) crabgrass (Digitaria sanguinalis)
# From the text: as §1, §2
# [15] = system: ragweed (common ragweed, Ambrosia elatior)
# From the text: as §1, §2
# [16] = system: giant foxtail (Setaria faberii)
# From the text: as §1, §2
# [17] = system: arrowleaf sida (Sida rhombifolia)
# From the text: as §1, §2
# [18] = system: goosegrass (Eleusine indica)
# From the text: as §1, §2
# [19] = system: Surinam grass (Brachiaria decumbens)
# From the text: as §1, §2
smiles,measurement,setting,value
"Fc1cccc(Oc2ncc(C(F)(F)F)cn2)c1Oc1ncc(Cl)cn1 [Compound 42, 5-chloro-2-[2-fluoro-6-[[5-(trifluoromethyl)-2-pyrimidinyl]oxy]phenoxy]pyrimidine]","Plant response rating, Morningglory",[1]; 16 g ai/ha,0
same,"Plant response rating, Morningglory",[1]; 31 g ai/ha,35
same,"Plant response rating, Morningglory",[1]; 62 g ai/ha,70
same,"Plant response rating, Morningglory",[1]; 125 g ai/ha,95
same,"Plant response rating, Panicum, Fall",[2]; 16 g ai/ha,0
same,"Plant response rating, Panicum, Fall",[2]; 31 g ai/ha,98
same,"Plant response rating, Panicum, Fall",[2]; 62 g ai/ha,100
same,"Plant response rating, Panicum, Fall",[2]; 125 g ai/ha,100
same,"Plant response rating, Corn",corn (Zea mays); 16 g ai/ha,0
same,"Plant response rating, Corn",corn (Zea mays); 31 g ai/ha,0
same,"Plant response rating, Corn",corn (Zea mays); 62 g ai/ha,35
same,"Plant response rating, Corn",corn (Zea mays); 125 g ai/ha,65
same,"Plant response rating, Lambsquarters",[3]; 16 g ai/ha,100
same,"Plant response rating, Lambsquarters",[3]; 31 g ai/ha,100
same,"Plant response rating, Lambsquarters",[3]; 62 g ai/ha,100
same,"Plant response rating, Lambsquarters",[3]; 125 g ai/ha,100
same,"Plant response rating, Dayflower, VA",[4]; 16 g ai/ha,0
same,"Plant response rating, Dayflower, VA",[4]; 31 g ai/ha,20
same,"Plant response rating, Dayflower, VA",[4]; 62 g ai/ha,90
same,"Plant response rating, Dayflower, VA",[4]; 125 g ai/ha,95
same,"Plant response rating, Foxtail, Green",[5]; 16 g ai/ha,35
same,"Plant response rating, Foxtail, Green",[5]; 31 g ai/ha,80
same,"Plant response rating, Foxtail, Green",[5]; 62 g ai/ha,95
same,"Plant response rating, Foxtail, Green",[5]; 125 g ai/ha,100
same,"Plant response rating, Ryegrass, Italian",[6]; 16 g ai/ha,20
same,"Plant response rating, Ryegrass, Italian",[6]; 31 g ai/ha,40
same,"Plant response rating, Ryegrass, Italian",[6]; 62 g ai/ha,80
same,"Plant response rating, Ryegrass, Italian",[6]; 125 g ai/ha,98
same,"Plant response rating, Pigweed, Palmer",[7]; 16 g ai/ha,60
same,"Plant response rating, Pigweed, Palmer",[7]; 31 g ai/ha,70
same,"Plant response rating, Pigweed, Palmer",[7]; 62 g ai/ha,80
same,"Plant response rating, Pigweed, Palmer",[7]; 125 g ai/ha,100
same,"Plant response rating, Nightshade",[8]; 16 g ai/ha,80
same,"Plant response rating, Nightshade",[8]; 31 g ai/ha,70
same,"Plant response rating, Nightshade",[8]; 62 g ai/ha,98
same,"Plant response rating, Nightshade",[8]; 125 g ai/ha,98
same,"Plant response rating, Barnyardgrass",[9]; 16 g ai/ha,5
same,"Plant response rating, Barnyardgrass",[9]; 31 g ai/ha,50
same,"Plant response rating, Barnyardgrass",[9]; 62 g ai/ha,70
same,"Plant response rating, Barnyardgrass",[9]; 125 g ai/ha,100
same,"Plant response rating, Waterhemp",[10]; 16 g ai/ha,98
same,"Plant response rating, Waterhemp",[10]; 31 g ai/ha,100
same,"Plant response rating, Waterhemp",[10]; 62 g ai/ha,100
same,"Plant response rating, Waterhemp",[10]; 125 g ai/ha,100
same,"Plant response rating, Sandbur",[11]; 16 g ai/ha,0
same,"Plant response rating, Sandbur",[11]; 31 g ai/ha,5
same,"Plant response rating, Sandbur",[11]; 62 g ai/ha,35
same,"Plant response rating, Sandbur",[11]; 125 g ai/ha,65
same,"Plant response rating, Nutsedge, Yellow",[12]; 16 g ai/ha,0
same,"Plant response rating, Nutsedge, Yellow",[12]; 31 g ai/ha,0
same,"Plant response rating, Nutsedge, Yellow",[12]; 62 g ai/ha,35
same,"Plant response rating, Nutsedge, Yellow",[12]; 125 g ai/ha,40
same,"Plant response rating, Soybean",soybean (Glycine max); 16 g ai/ha,0
same,"Plant response rating, Soybean",soybean (Glycine max); 31 g ai/ha,35
same,"Plant response rating, Soybean",soybean (Glycine max); 62 g ai/ha,35
same,"Plant response rating, Soybean",soybean (Glycine max); 125 g ai/ha,100
same,"Plant response rating, Beggarticks",[13]; 16 g ai/ha,0
same,"Plant response rating, Beggarticks",[13]; 31 g ai/ha,0
same,"Plant response rating, Beggarticks",[13]; 62 g ai/ha,0
same,"Plant response rating, Beggarticks",[13]; 125 g ai/ha,0
same,"Plant response rating, Crabgrass, Large",[14]; 16 g ai/ha,80
same,"Plant response rating, Crabgrass, Large",[14]; 31 g ai/ha,98
same,"Plant response rating, Crabgrass, Large",[14]; 62 g ai/ha,100
same,"Plant response rating, Crabgrass, Large",[14]; 125 g ai/ha,100
same,"Plant response rating, Ragweed",[15]; 16 g ai/ha,0
same,"Plant response rating, Ragweed",[15]; 31 g ai/ha,20
same,"Plant response rating, Ragweed",[15]; 62 g ai/ha,65
same,"Plant response rating, Ragweed",[15]; 125 g ai/ha,100
same,"Plant response rating, Foxtail, Giant",[16]; 16 g ai/ha,50
same,"Plant response rating, Foxtail, Giant",[16]; 31 g ai/ha,80
same,"Plant response rating, Foxtail, Giant",[16]; 62 g ai/ha,100
same,"Plant response rating, Foxtail, Giant",[16]; 125 g ai/ha,100
same,"Plant response rating, Arrowleaf Sida",[17]; 16 g ai/ha,100
same,"Plant response rating, Arrowleaf Sida",[17]; 31 g ai/ha,98
same,"Plant response rating, Arrowleaf Sida",[17]; 62 g ai/ha,100
same,"Plant response rating, Arrowleaf Sida",[17]; 125 g ai/ha,100
same,"Plant response rating, Goosegrass",[18]; 16 g ai/ha,0
same,"Plant response rating, Goosegrass",[18]; 31 g ai/ha,50
same,"Plant response rating, Goosegrass",[18]; 62 g ai/ha,90
same,"Plant response rating, Goosegrass",[18]; 125 g ai/ha,98
same,"Plant response rating, Surinam Grass",[19]; 16 g ai/ha,0
same,"Plant response rating, Surinam Grass",[19]; 31 g ai/ha,0
same,"Plant response rating, Surinam Grass",[19]; 62 g ai/ha,40
same,"Plant response rating, Surinam Grass",[19]; 125 g ai/ha,85
"Fc1cccc(Oc2ncc(Cl)cn2)c1Oc1ncc(C(F)(F)F)cn1 [Compound 43, 5-chloro-2-[5-fluoro-6-[[5-(trifluoromethyl)-2-pyrimidinyl]oxy]phenoxy]pyrimidine]","Plant response rating, Morningglory",[1]; 31 g ai/ha,5
same,"Plant response rating, Morningglory",[1]; 125 g ai/ha,95
same,"Plant response rating, Panicum, Fall",[2]; 31 g ai/ha,95
same,"Plant response rating, Panicum, Fall",[2]; 125 g ai/ha,100
same,"Plant response rating, Corn",corn (Zea mays); 31 g ai/ha,0
same,"Plant response rating, Corn",corn (Zea mays); 125 g ai/ha,50
same,"Plant response rating, Lambsquarters",[3]; 31 g ai/ha,95
same,"Plant response rating, Lambsquarters",[3]; 125 g ai/ha,100
same,"Plant response rating, Dayflower, VA",[4]; 31 g ai/ha,25
same,"Plant response rating, Dayflower, VA",[4]; 125 g ai/ha,95
same,"Plant response rating, Foxtail, Green",[5]; 31 g ai/ha,70
same,"Plant response rating, Foxtail, Green",[5]; 125 g ai/ha,100
same,"Plant response rating, Ryegrass, Italian",[6]; 31 g ai/ha,40
same,"Plant response rating, Ryegrass, Italian",[6]; 125 g ai/ha,98
same,"Plant response rating, Pigweed, Palmer",[7]; 31 g ai/ha,75
same,"Plant response rating, Pigweed, Palmer",[7]; 125 g ai/ha,90
same,"Plant response rating, Nightshade",[8]; 31 g ai/ha,98
same,"Plant response rating, Nightshade",[8]; 125 g ai/ha,100
same,"Plant response rating, Barnyardgrass",[9]; 31 g ai/ha,20
same,"Plant response rating, Barnyardgrass",[9]; 125 g ai/ha,100
same,"Plant response rating, Waterhemp",[10]; 31 g ai/ha,90
same,"Plant response rating, Waterhemp",[10]; 125 g ai/ha,100
same,"Plant response rating, Sandbur",[11]; 31 g ai/ha,15
same,"Plant response rating, Sandbur",[11]; 125 g ai/ha,100
same,"Plant response rating, Nutsedge, Yellow",[12]; 31 g ai/ha,0
same,"Plant response rating, Nutsedge, Yellow",[12]; 125 g ai/ha,25
same,"Plant response rating, Soybean",soybean (Glycine max); 31 g ai/ha,30
same,"Plant response rating, Soybean",soybean (Glycine max); 125 g ai/ha,65
same,"Plant response rating, Beggarticks",[13]; 31 g ai/ha,0
same,"Plant response rating, Beggarticks",[13]; 125 g ai/ha,0
same,"Plant response rating, Crabgrass, Large",[14]; 31 g ai/ha,98
same,"Plant response rating, Crabgrass, Large",[14]; 125 g ai/ha,100
same,"Plant response rating, Ragweed",[15]; 31 g ai/ha,60
same,"Plant response rating, Ragweed",[15]; 125 g ai/ha,85
same,"Plant response rating, Foxtail, Giant",[16]; 31 g ai/ha,85
same,"Plant response rating, Foxtail, Giant",[16]; 125 g ai/ha,100
same,"Plant response rating, Arrowleaf Sida",[17]; 31 g ai/ha,100
same,"Plant response rating, Arrowleaf Sida",[17]; 125 g ai/ha,100
same,"Plant response rating, Goosegrass",[18]; 31 g ai/ha,50
same,"Plant response rating, Goosegrass",[18]; 125 g ai/ha,100
same,"Plant response rating, Surinam Grass",[19]; 31 g ai/ha,25
same,"Plant response rating, Surinam Grass",[19]; 125 g ai/ha,80
